The results in this text go back to US20240002401A1, “IMIDAZOTHIAZOLE COMPOUNDS, PHARMACEUTICAL COMPOSITIONS, AND USES THEREOF” (GUANGZHOU HENOVCOM BIOSCIENCE CO., LTD., priority 2020, published 2024).

Structures are written as SMILES.

One data set deals with ATX (Homo sapiens, UniProt Q13822). In words: Enzyme activity screening in vitro with LPC as substrate (Amplex Red fluorescence). The data set is classed as biochemical. Conditions: inhibitory activity against ATX. The text has this: Analysis In Vitro: LPC was Used as Substrate for Screening Enzyme Activity
Principle: Lysophosphatidylcholine (LPC) as substrate is hydrolyzed by using the activity of lysoPLD enzyme, to produce lysophosphatidic acid (LPA) and choline, which is oxidized to produce H2O2 under the action of choline oxidase. In presence of horse radish peroxidase (HPR), Amplex Red reagent is reacted with H2O2 in a quantitative chemistry ratio of 1 to 1, to produce strong fluorescence products, which are detected by a fluorescent quantitative test.
20 μl of the above mixed solution 1 was added to each hole of an experiment board, […]. The compounds diluted with DMSO were transferred into an experiment board with Echo550. The reaction buffer solution was used for preparing a mixed solution 2 of […] LPC and 400 μM Amplex Red in a final concentration. 20 μl of the above mixed solution 2 was added to each hole of the experiment board. After addition, the experiment board was shook for 30 seconds on a shaker, and incubated for 30 minutes. Envision was used to read the fluorescence signals with an exciting light at 530 nm and emitted light at 590 nm.

The nature of data set [1]: Pharmacokinetics test in mice. The data set is classed as in vivo. To be noted: male SD mice; for F: absolute bioavailability, oral 5 mg/kg vs intravenous 1 mg/kg; for AUC / half-life: mouse, plasma. An excerpt: Pharmacokinetics Test in Mice
Male SD mice were selected for pharmacokinetics test study, plasma concentration at different time points were quantitatively determined by LC/MS/MS method after the mice were intravenously injected and orally administrated with the compounds to be tested, thereby evaluating pharmacokinetics characteristic of the compounds to be tested in SD mice.
SD mice (free food and drink, 6 to 8 weeks old) were intravenously administrated via a foot injection with a clear solution of the compounds to be tested, alternatively, SD mice (free food and drink, 6 to 8 week old) were intragastrically administrated with a suspension of the compounds to be tested. Blood samples were collected from the tail veins of the mice 0.083, 0.25, 0.5, 1, 2, 4, 6, 8, 10, and 24 hours after administration, and each sampling was 0.15 mL. All collected blood samples were placed into centrifuge tubes with EDTA-K2, turned upside and down to mix the anticoagulant with the blood well. The plasma was separated by centrifugation at 1500 g for 10 min at 4° C. within […]. The plasma sample was transferred into a new centrifuge tube and stored at −90° C. to −60° C. until the analysis was performed. LC-MS/MS was used to measure the blood concentration of the compounds to be tested of the present disclosure, and the pharmacokinetic parameters, as well as absolute bioavailability, were calculated by a non-compartment model in Pharsight Phoenix 8.0 software, as shown in Table 2.

Where [2] appears, read: Intravenous injection (1 mg/kg).

A word on the IC50: it is the point on the concentration scale where inhibition reaches its midpoint. A lower IC50 goes with greater potency. The AUC is the area under the concentration-time curve, a measure of exposure. Read a high AUC as more exposure. As a reminder, the half-life is how long it takes for the measured level to halve. `CCc1nc2sc(C3CCN(CC(=O)NC4CCOCC4)CC3)cn2c1N(CC)c1nc(-c2ccc(F)cc2)c(C#N)s1` [Embodiment 23, 2-(4-(5-((5-cyano-4-(4-fluorophenyl)thiazol-2-yl)(ethyl)amino)-6-ethylimidazo[2,1-b]thiazol-2-yl)piperidin-1-yl)-N-(tetrahydro-2H-pyran-4-yl)acetamide]: on ATX, the IC50 lay in the range of 0.01 to 100 nM. In data set [1], the F is 70%. In data set [1] (setting [2]), this molecule gave an AUC of 1180 ng·h/mL and a half-life of 4.18 h. In data set [1] (Oral administration (5 mg/kg)), this molecule had an AUC of 4190 ng·h/mL and a half-life of 3.93 h.

At ATX, `CCc1nc2sc(C3CCN(CC(=O)N4CC(O)C4)CC3)cn2c1N(c1nc(-c2ccc(F)cc2)c(C#N)s1)C(C)C` [Embodiment 25, 2-((6-ethyl-2-(1-(2-(3-hydroxyazetidin-1-yl)-2-oxoethyl)piperidin-4-yl)imidazo[2,1-b]thiazol-5-yl)(isopropyl)amino)-4-(4-fluorophenyl)thiazole-5-carbonitrile] displayed an IC50 of 0.01 to 100 nM. Further, in data set [1], the F is on record as 55%. In data set [1] (setting [2]), the AUC was 732 ng·h/mL and the half-life is 3.11 h. Besides, in data set [1] (Oral administration (5 mg/kg)), the AUC is 1900 ng·h/mL and the half-life is 3.83 h.

`CCc1nc2sc(C3CCN(CC(=O)NC4COC4)CC3)cn2c1N(CC)c1nc(-c2ccc(F)cc2)c(C#N)s1` [Embodiment 21, 2-(4-(5-((5-cyano-4-(4-fluorophenyl)thiazol-2-yl)(ethyl)amino)-6-ethylimidazo[2,1-b]thiazol-2-yl)piperidin-1-yl)-N-(3-oxacyclobutyl)acetamide] registered an IC50 against ATX of 0.01 to 100 nM. In addition, in data set [1], the F is listed as 114%. Besides, the results for the AUC in data set [1] (setting [2]) and in data set [1] (Oral administration (5 mg/kg)) were 1040 ng·h/mL and 5500 ng·h/mL, respectively. For the same molecule, the half-life was 3.32 h in data set [1] (setting [2]) and 2.61 h in data set [1] (Oral administration (5 mg/kg)).

Molecule `CCc1nc2sc(C3CCN(CC(=O)NCC(F)F)CC3)cn2c1N(CC)c1nc(-c2ccc(F)cc2)c(C#N)s1` [Embodiment 11, 2-(4-(5-((5-cyano-4-(4-fluorophenyl)thiazol-2-yl)(ethyl)amino)-6-ethylimidazo[2,1-b]thiazol-2-yl)piperidin-1-yl)-N-(2,2-difluoroethyl)acetamide] gave an IC50 against ATX of 0.01 to 100 nM. The molecule also returned a F in data set [1] of 42%. For the same molecule, in data set [1] (setting [2]), the AUC turned out to be 907 ng·h/mL and the half-life was 4.69 h. In data set [1] (Oral administration (5 mg/kg)), this molecule gave an AUC of 1730 ng·h/mL and a half-life of 4.4 h.

For the molecule `[2H]C([2H])([2H])C([2H])([2H])N(c1nc(-c2ccc(F)cc2)c(C#N)s1)c1c(CC)nc2sc(C3CCN(CC(=O)N4CC(O)C4)CC3)cn12` [Embodiment 7, 2-((ethyl-d5)(6-ethyl-2-(1-(2-(3-hydroxyazetidin-1-yl)-2-oxoethyl)piperidin-4-yl)imidazo[2,1-b]thiazol-5-yl)amino)-4-(4-fluorophenyl)thiazole-5-carbonitrile], the IC50 against ATX fell in the range of 0.01 to 100 nM. In data set [1], this molecule had an F of 65%. Also, the AUC in data set [1] (setting [2]) is 1480 ng·h/mL; in data set [1] (Oral administration (5 mg/kg)) it was 4810 ng·h/mL. The half-life is 3.97 h in data set [1] (setting [2]) and 2.81 h in data set [1] (Oral administration (5 mg/kg)).

The molecule `CCc1nc2sc(C3CCN(CC(=O)N4CC(O)C4)CC3)cn2c1N(c1nc(-c2ccc(F)cc2)c(C#N)s1)C1CC1` [Embodiment 24, 2-(cyclopropyl(6-ethyl-2-(1-(2-(3-hydroxyazetidin-1-yl)-2-oxoethyl)piperidin-4-yl)imidazo[2,1-b]thiazol-5-yl)amino)-4-(4-fluorophenyl)thiazole-5-carbonitrile] registered an IC50 against ATX of 100 to 500 nM. Also, the F in data set [1] is listed as 43%. For the same molecule, the AUC in data set [1] (setting [2]) was determined as 1170 ng·h/mL; in data set [1] (Oral administration (5 mg/kg)), 2520 ng·h/mL. The half-life is 2.14 h in data set [1] (setting [2]) and 2.23 h in data set [1] (Oral administration (5 mg/kg)).

On to `CCc1nc2sc(C3CCN(CC(=O)N4CCOCC4)CC3)cn2c1N(CC)c1nc(-c2ccc(F)cc2)c(C#N)s1` [Embodiment 22, 2-(ethyl(6-ethyl-2-(1-(2-morpholino-2-oxoethyl)piperidin-4-yl)imidazo[2,1-b]thiazol-5-yl)amino)-4-(4-fluorophenyl)thiazole-5-carbonitrile], for which, on ATX, the IC50 lay in the range of 0.01 to 100 nM. In data set [1], this molecule yielded an F of 39%. In data set [1] (setting [2]), this molecule showed an AUC of 649 ng·h/mL and a half-life of 4.56 h. Also, in data set [1] (Oral administration (5 mg/kg)), the AUC was determined as 1260 ng·h/mL and the half-life is 4.19 h.
